Laboratory results published in PMC11674187, “Inhibitory Effects of Cenobamate on Multiple Human Cardiac Ion Channels and Possible Arrhythmogenic Consequences” (Biomolecules, 2024).
“And” between values parts separate entries of the source, which are not always exact repeats. Equal entries are not always repeated. Where two headings read alike, the source gives them in different places.

Key:
hKv11.1 (hERG), IKr = target: T1, hKv11.1 (hERG), IKr (Homo sapiens, UniProt Q12809); experiment: Whole-cell patch-clamp on HEK293T cells, IKr; format: cell-based; conditions: human, HEK293T cells expressing hKv11.1 (hERG); for inhibition at 200 µM: pH 7.4, cenobamate 200 µM
T1 construct: host or cells: HEK293T
Method: (§1) Experiments were performed on HEK293T cell lines with persistent/inducible expression of different human cardiac ion channel isoforms: hNav1.5 and hKv7.1 + minK (Anaxon AG, Bern, Switzerland), hCav1.2 (α1c + β2 + α2δ1) (B’SYS GmbH, Witterswil, Switzerland), and hKv11.1 (hERG) (Cytocentrics Bioscience GmbH, Rostock, Germany). The cell lines were grown in standard conditions (37 °C, 5% CO2, 90% humidity) in DMEM:F12 medium (D8900, Sigma-Aldrich, Burlington, MA, USA) buffered with 15 mM HEPES, containing 3.15 g/L D-glucose and 0.055 g/L sodium pyruvate, supplemented with 1.2 g/L sodium bicarbonate, 10% fetal bovine serum (F2442, Sigma-Aldrich, Burlington, MA, USA), 2 mM L-glutamine (G7513, Sigma-Aldrich, Burlington, MA, USA), 1% penicillin–streptomycin (P4333, Sigma-Aldrich, Burlington, MA, USA), and with specific antibiotics for selection of transfected cells or induction of gene expression according to manufacturers’ instructions. The medium was changed every 2–3 days and the cells were passed weekly upon detachment with trypsin–EDTA solution. All cell culture media and solutions were sterile filtered with 0.22 μm polyvinylidene fluoride filters. Ncyte® vCardiomyocytes (Ncardia, Leiden, The Netherlands) were cultured in 24-well plates precoated with bovine fibronectin, following manufacturer’s instructions. For the experiments, cardiomyocytes were detached as described previously and plated on ϕ 10 mm glass coverslips, like the other cell lines.
(§2) Manual whole-cell patch-clamp experiments were performed at room temperature, with equipment as described in previous studies. Pipettes were pulled from Clark borosilicate glass capillaries with inner filament (GC150F-10, Harvard Apparatus, Holliston, MA, USA) and had typical resistances of 2–3 MΩ. Recordings were performed with a WPC-100 resistive feedback amplifier (ESF electronic, Göttingen, Germany) or an Axopatch 200B amplifier (Axon Instruments—Molecular Devices, San Jose, CA, USA) connected to a Digidata 1322A interface driven by the pClamp 8.2 Clampex module (Axon Instruments, part of Molecular Devices, San Jose, CA, USA). For different types of ion channel, we applied specific voltage-clamp protocols as follows: • - For hERG, a standard two-step activation protocol was used: holding at −70 mV, a 100 ms step at −50 mV used as current reference for measurements, a 2 s depolarizing step at +40 mV, followed by a 2 s step at −50 mV to elicit the peak hERG current by rapid recovery from inactivation, repeated sweeps at 10 s intervals, plus specific protocols to assess the voltage dependence of activation and inactivation, as described in Thomet et al., 2021 [11]. • - For hKv7.1 + minK, a general two-step activation protocol was used: holding at −110 mV, a 250 ms step at −80 mV with a brief (50 ms) step at −90 mV at the middle to monitor seal quality, a 3000 ms depolarizing step at +60 mV, followed by a 1000 ms step at −50 mV; repeated sweeps at 20 s intervals. • - For hCav1.2, a pharmacology protocol with holding at −80 mV, a first 100 ms step at −50 mV and a second 200 ms step at 0 mV, repeated sweeps at 20 s intervals with drug application after 5 sweeps if current levels were steady, plus an activation–inactivation protocol with holding at −80 mV, 1000 ms depolarizing steps from −80 to +50 mV in 10 mV increments, followed by 250 ms steps at +10 mV and a return to −80 mV; 14 sweeps at 20 s intervals. • - For hNav1.5, multiple voltage protocols were used, including the following: • - A standard pharmacology protocol with holding at −90 mV, a 20 ms step at −110 mV for seal monitoring, a 40 ms activation step at −10 mV, and repeated sweeps at 1 s intervals. […]

hKv11.1 (hERG) = target: T2, hKv11.1 (hERG) (Homo sapiens, UniProt Q12809); experiment: Whole-cell patch-clamp on HEK293T cells, IKr; format: cell-based
T2 construct: host or cells: HEK293T
Method: as §1, §2

[1] = ref https://go.drugbank.com/drugs/DB06119; cited from earlier work
[2] = mouse; ref [5] p.10; cited from earlier work

T2 sequence (Q12809 whole entry): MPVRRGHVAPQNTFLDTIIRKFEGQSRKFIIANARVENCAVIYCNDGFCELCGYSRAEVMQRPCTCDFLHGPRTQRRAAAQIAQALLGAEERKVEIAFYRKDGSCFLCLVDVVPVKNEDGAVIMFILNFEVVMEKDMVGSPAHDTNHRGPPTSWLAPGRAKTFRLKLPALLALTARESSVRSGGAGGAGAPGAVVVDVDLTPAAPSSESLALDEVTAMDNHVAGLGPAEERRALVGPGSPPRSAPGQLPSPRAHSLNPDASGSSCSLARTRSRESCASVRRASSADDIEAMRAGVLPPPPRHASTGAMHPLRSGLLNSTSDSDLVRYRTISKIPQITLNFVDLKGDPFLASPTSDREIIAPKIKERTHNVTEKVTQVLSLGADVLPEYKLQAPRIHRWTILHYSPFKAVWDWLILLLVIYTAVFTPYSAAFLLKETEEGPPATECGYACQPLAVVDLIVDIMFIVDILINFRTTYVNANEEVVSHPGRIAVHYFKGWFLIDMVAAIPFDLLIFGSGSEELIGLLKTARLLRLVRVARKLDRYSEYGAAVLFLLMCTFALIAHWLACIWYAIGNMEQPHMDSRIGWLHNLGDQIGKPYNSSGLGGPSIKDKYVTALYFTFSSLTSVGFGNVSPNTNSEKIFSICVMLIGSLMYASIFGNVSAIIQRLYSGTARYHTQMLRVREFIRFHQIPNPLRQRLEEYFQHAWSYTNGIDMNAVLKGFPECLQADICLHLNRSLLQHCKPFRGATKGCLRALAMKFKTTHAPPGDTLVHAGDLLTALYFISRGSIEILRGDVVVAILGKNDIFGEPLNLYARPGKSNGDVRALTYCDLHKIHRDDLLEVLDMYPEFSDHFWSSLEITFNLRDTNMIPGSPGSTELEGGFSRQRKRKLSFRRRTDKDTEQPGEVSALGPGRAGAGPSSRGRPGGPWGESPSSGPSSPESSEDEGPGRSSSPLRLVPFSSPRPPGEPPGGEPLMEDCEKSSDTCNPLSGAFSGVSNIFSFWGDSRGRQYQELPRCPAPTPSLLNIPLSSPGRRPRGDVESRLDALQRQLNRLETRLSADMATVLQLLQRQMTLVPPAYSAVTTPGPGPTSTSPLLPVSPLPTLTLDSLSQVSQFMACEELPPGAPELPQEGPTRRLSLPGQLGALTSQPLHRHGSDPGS
T1 sequence (Q12809 whole entry): as above

SMILES: NC(=O)O[C@@H](Cn1ncnn1)c1ccccc1Cl [cenobamate]
- inhibition at 20 µM (hKv11.1 (hERG), IKr; pH 7.4, cenobamate 20 µM, vs. 4.1% in control experiments, read-out: average peak IKr (hERG) inhibition): 5.3 ± 1.8%
- inhibition at 200 µM (hKv11.1 (hERG), IKr; read-out: % IKr inhibition, single experiments (Table S7)): 8.01%
- inhibition at 200 µM (hKv11.1 (hERG), IKr; read-out: average peak IKr inhibition corrected for control (10.97 − 4.1)): 6.87%
- inhibition at 200 µM (hKv11.1 (hERG), IKr; step at -50 mV, read-out: relative peak IKr inhibition, mean): 11 ± 3.11%
- IC50 (hKv11.1 (hERG)): > 200 µM
- % IKr inhibition, single experiments (Table S7) (hKv11.1 (hERG); cenobamate 200 µM): 14.26% and 12.93% and 7.32% and 12.35%
- logP [1]: 1.66
- physiological charge [1]: 0
- strongest acidic pKa [1]: 14.28
- strongest basic pKa [1]: −1.7
- protein binding [2]: 43.2%
